Measurements reported in patent publication US8895610B1, “Platinum (IV) compounds targeting zinc finger domains” (priority 2007, dated 2014).
Where “and” joins values, the source holds several entries; their conditions need not be identical. Equal entries are not always repeated.

Key:
FIV Petaluma = test: p25 antigen evaluation of antiviral activity in MBM cells; format: cell-based, feline; conditions: for p25 Viral Antigen (OD), average / p25 Viral Antigen (OD), individual wells: 7 days post infection, K+ = 1.195, K− = 0.08
Procedure: Antiviral activity in MBM was determined by inoculating 200 Tissue Culture Infectious Doses 50% FIV Petaluma (Talbott, 1989) in 100 μL RPMI 1640 medium into quadruplicate wells of 96-well microplates containing 2×10^5 cells in 100 μL medium. The cultures were monitored by measuring FIV p25 capsid protein (Lombardi, 1994) release in the supernatants after 7 days of incubation at 37° C. in 5% CO2 (Table 12). Half the media (without drug) was replaced on days 2 and 6 after infection and initial drug exposure. […] Drugs are identified as: CPA-7 (#1); NAD (#2); cisplatin (#3) and FX101 (#4). […]. […] A minimum of 50% inhibition in vitro is required to offset viral infectivity and replication in vivo.

STAT3 = STAT3 (Homo sapiens, UniProt P40763); conditions: have been shown; cited from earlier work
Sequence of STAT3 (P40763 whole entry, species assumed): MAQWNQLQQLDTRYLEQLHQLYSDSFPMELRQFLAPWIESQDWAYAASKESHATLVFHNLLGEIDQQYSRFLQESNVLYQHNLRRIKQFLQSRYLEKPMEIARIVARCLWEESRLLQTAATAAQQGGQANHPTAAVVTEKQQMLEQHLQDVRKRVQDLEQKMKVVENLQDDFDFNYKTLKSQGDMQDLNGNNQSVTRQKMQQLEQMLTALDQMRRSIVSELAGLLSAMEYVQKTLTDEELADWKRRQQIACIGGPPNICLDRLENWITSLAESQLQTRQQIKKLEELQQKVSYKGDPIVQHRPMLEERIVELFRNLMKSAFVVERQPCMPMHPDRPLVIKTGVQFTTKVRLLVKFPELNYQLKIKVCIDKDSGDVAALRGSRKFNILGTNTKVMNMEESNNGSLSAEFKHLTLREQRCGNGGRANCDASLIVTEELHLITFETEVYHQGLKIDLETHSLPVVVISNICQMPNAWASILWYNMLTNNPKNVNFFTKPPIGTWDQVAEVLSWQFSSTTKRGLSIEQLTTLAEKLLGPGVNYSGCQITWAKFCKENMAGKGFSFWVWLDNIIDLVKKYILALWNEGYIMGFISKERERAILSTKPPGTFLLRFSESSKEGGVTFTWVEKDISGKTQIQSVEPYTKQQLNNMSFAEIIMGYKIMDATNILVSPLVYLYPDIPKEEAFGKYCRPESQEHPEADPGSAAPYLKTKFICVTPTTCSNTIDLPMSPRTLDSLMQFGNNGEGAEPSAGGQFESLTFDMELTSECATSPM

SMILES	inhibition (elimination of all measures of virus) by day 7 (FIV Petaluma; 7 days, concentrations used 5 and 20 μM) [%]	p25 Viral Antigen (OD), average (FIV Petaluma; conc 5 μM) [OD]	p25 Viral Antigen (OD), individual wells (FIV Petaluma; conc 5 μM)	p25 Viral Antigen (OD), average (FIV Petaluma; conc 20 μM) [OD]	p25 Viral Antigen (OD), individual wells (FIV Petaluma; conc 20 μM)	antiviral effectiveness (in words) (FIV Petaluma; p25 release, MBM cells, 7 days)	inhibition of STAT3 (STAT3)
[NH2][Pt]([NH2])([Cl])([Cl])([Cl])[N+](=O)[O-] [Drug #1]	< 30	1.0943	1.093 OD and 1.122 OD and 1.068 OD	0.8163	0.788 OD and 0.825 OD and 0.836 OD	insignificantly effective	inhibit STAT3
N.N.[Cl][Pt][Cl] [Drug #3, cisplatin]		1.0157	1.04 OD and 1.021 OD and 0.986 OD	1.0133	1.014 OD and 1.033 OD and 0.993 OD		
